Reference: patent US20090221642A1, “MUSCARINIC RECEPTOR AGONISTS, COMPOSITIONS, METHODS OF TREATMENT THEREOF, AND PROCESSES FOR PREPARATION THEREOF-176” (AstraZeneca AB, priority 2008, published 2009)

What was measured:
[1] = target: T1, cloned human M2 receptor (human Muscarinic receptor subtype 2) (Homo sapiens, UniProt P08172); assay: hM2 receptor GTPγS binding; assay type: biochemical; conditions: CHO cell membranes expressing hM2; [35S]GTPγS binding; read-out: hM2 EC50
T1 construct: purchased Perkin-Elmer RBHM2M; host or cells: Chinese hamster ovary cells (CHO) membranes
T1 sequence (P08172 1-466): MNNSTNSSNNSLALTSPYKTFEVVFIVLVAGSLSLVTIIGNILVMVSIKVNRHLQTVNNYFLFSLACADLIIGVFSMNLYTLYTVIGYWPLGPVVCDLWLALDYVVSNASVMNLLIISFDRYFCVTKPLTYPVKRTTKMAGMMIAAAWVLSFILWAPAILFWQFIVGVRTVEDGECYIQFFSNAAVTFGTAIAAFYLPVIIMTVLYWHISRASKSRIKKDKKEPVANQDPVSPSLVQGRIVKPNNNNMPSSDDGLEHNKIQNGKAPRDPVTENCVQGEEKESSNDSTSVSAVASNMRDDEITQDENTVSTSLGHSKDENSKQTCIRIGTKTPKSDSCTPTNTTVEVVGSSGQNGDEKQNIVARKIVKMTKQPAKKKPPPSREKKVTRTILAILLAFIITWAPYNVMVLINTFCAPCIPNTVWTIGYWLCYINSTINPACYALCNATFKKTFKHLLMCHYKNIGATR
Protocol: hM2 Receptor GTPγS Binding
Membranes produced from Chinese hamster ovary cells (CHO) expressing the cloned human M2 receptor (human Muscarinic receptor subtype 2, gene bank access NM_000739), are obtained from Perkin-Elmer (RBHM2M). The membranes are thawed at 37° C., passed 3 times through a 23-gauge blunt-end needle, diluted in the GTPγS binding buffer (50 mM Hepes, 20 mM NaOH, 100 mM NaCl, 1 mM EDTA, 5 mM MgCl2, pH 7.4, 100 μM DTT). The EC50, IC50 and Emax of the compounds of the invention are evaluated from 10-point dose-response curves (three fold concentration range) done in 60 μl in 384-well non-specific binding surface plate (Corning). Ten microliters from the dose-response curves plate (5× concentration) are transferred to another 384 well plate containing 25 μl of the following: 5 μg of hM2 membranes, 500 μg of Flashblue beads (Perkin-Elmer) and GDP 25 μM. An additional 15 μl containing 3.3× (60,000 dpm) of GTPγ^35S (0.4 nM final) are added to the wells resulting in a total well volume of 50 μl. Basal and maximal stimulated [^35S]GTPγS binding are determined in absence and presence of 30 μM final of acetylcholine agonist. The membranes/beads mix are pre-incubated for 15 minutes at room temperature with 25 μM GDP prior to distribution in plates (12.5 μM final). The reversal of acetylcholine-induced stimulation (2 μM final) of [^35S]GTPγS binding is used to assay the antagonist properties (IC50) of the compounds. The plates are incubated for 60 minutes at room temperature then centrifuged at 400 rpm for 5 minutes. The radioactivity (cpm) is counted in a Trilux (Perkin-Elmer).
(§1) Values of EC50, IC50 and Emax are obtained using sigmoidal fits of a non-linear curve-fitting program (XLfit version 4.2.2 Excel add-in version 4.2.2 build 18 math 1Q version 2.1.2 build 18) of percent stimulated [^35S]GTPγS binding vs. log(molar ligand). All pEC50 and plC50 values are reported as arithmetic means ±standard error of mean of ‘n’ independent experiments.

[2] = target: T2, cloned human M4 receptor (human Muscarinic receptor subtype 4) (Homo sapiens, UniProt P08173); assay: hM4 receptor GTPγS binding; assay type: biochemical; conditions: CHO cell membranes expressing hM4; [35S]GTPγS binding; read-out: hM4 EC50
T2 construct: purchased Perkin-Elmer RBHM4M; host or cells: Chinese hamster ovary cells (CHO) membranes
T2 sequence (P08173 1-479): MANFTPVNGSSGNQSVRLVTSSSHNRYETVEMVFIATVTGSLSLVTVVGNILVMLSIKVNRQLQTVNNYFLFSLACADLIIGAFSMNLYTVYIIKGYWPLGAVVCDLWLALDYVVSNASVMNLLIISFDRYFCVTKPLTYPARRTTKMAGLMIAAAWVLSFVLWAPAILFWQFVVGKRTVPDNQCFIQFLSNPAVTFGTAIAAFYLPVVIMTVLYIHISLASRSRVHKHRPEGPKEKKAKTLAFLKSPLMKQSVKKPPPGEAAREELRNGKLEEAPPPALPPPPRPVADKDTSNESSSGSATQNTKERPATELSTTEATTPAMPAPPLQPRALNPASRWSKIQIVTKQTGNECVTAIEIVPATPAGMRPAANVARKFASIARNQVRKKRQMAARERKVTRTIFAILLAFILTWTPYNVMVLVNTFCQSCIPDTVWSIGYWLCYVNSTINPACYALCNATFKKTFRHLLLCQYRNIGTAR
Protocol: hM4 Receptor GTPγS Binding
Membranes produced from Chinese hamster ovary cells (CHO) expressing the cloned human M4 receptor (human Muscarinic receptor subtype 4, gene bank access NM_000741), are obtained from Perkin-Elmer (RBHM4M). The membranes are thawed at 37° C., passed 3 times through a 23-gauge blunt-end needle, diluted in the GTPγS binding buffer (50 mM Hepes, 20 mM NaOH, 100 mM NaCl, 1 mM EDTA, 5 mM MgCl2, pH 7.4, 100 μM DTT). The EC50, IC50 and Emax of the compounds of the invention are evaluated from 10-point dose-response curves (three fold concentration range) done in 60 μl in 384-well non-specific binding surface plate (Corning). Ten microliters from the dose-response curves plate (5× concentration) are transferred to another 384 well plate containing 25 μl of the following: 10 μg of hM4 membranes, 500 μg of Flashblue beads (Perkin-Elmer) and GDP 40 μM. An additional 15 μl containing 3.3× (60,000 dpm) of GTPγ^35S (0.4 nM final) are added to the wells resulting in a total well volume of 50 μl. Basal and maximal stimulated [^35S]GTPγS binding are determined in absence and presence of 30 μM final of acetylcholine agonist. The membranes/beads mix are pre-incubated for 15 minutes at room temperature with 40 μM GDP prior to distribution in plates (20 μM final). The reversal of acetylcholine-induced stimulation (10 μM final) of [^35S]GTPγS binding is used to assay the antagonist properties (IC50) of the compounds. The plates are incubated for 60 minutes at room temperature then centrifuged at 400 rpm for 5 minutes. The radioactivity (cpm) is counted in a Trilux (Perkin-Elmer).
as §1

| EC50 [1] [nM] | EC50 [2] [nM] | Structure (SMILES) |
| --- | --- | --- |
| 865 | 2480 | COC(=O)N1CCC(C)(N2CCC(n3c(=O)[nH]c4ccccc43)CC2)C1 (racemic) [Example 2, methyl 3-methyl-3-(4-(2-oxo-2,3-dihydro-1H-benzo[d]imidazol-1-yl)piperidin-1-yl)pyrrolidine-1-carboxylate] |
| 1860 | 4380 | CC1(N2CCC(n3c(=O)[nH]c4ccccc43)CC2)CCN(C(=O)OCCF)C1 (racemic) [Example 4, 2-fluoroethyl 3-methyl-3-(4-(2-oxo-2,3-dihydro-1H-benzo[d]imidazol-1-yl)piperidin-1-yl)pyrrolidine-1-carboxylate] |
| 588 | 1730 | CCOC(=O)N1CCC(C)(N2CCC(n3c(=O)[nH]c4cc(F)ccc43)CC2)C1 (single isomer, unassigned) [Example 6, ethyl 3-(4-(5-fluoro-2-oxo-2,3-dihydro-1H-benzo[d]imidazol-1-yl)piperidin-1-yl)-3-methylpyrrolidine-1-carboxylate] |
| 4500 | > 24400 | CCOC(=O)N1CCC(C)(N2CCC(n3c(=O)[nH]c4cc(F)ccc43)CC2)C1 (single isomer, unassigned) [Example 7, ethyl 3-(4-(5-fluoro-2-oxo-2,3-dihydro-1H-benzo[d]imidazol-1-yl)piperidin-1-yl)-3-methylpyrrolidine-1-carboxylate] |
| 771 | 2000 | CCOC(=O)N1CCC(C)(N2CCC(n3c(=O)[nH]c4cc(C)ccc43)CC2)C1 (single isomer, unassigned) [Example 12, ethyl 3-methyl-3-(4-(5-methyl-2-oxo-2,3-dihydro-1H-benzo[d]imidazol-1-yl)piperidin-1-yl)pyrrolidine-1-carboxylate] |
| 1500 | > 90000 | Cc1ccc2c(c1)[nH]c(=O)n2C1CCN(C2(C)CCN(C(=O)OC(C)C)C2)CC1 (single isomer, unassigned) [Example 14, isopropyl 3-methyl-3-(4-(5-methyl-2-oxo-2,3-dihydro-1H-benzo[d]imidazol-1-yl)piperidin-1-yl)pyrrolidine-1-carboxylate] |
| 2850 | > 90000 | Cc1ccc2c(c1)[nH]c(=O)n2C1CCN(C2(C)CCN(C(=O)OC(C)C)C2)CC1 (single isomer, unassigned) [Example 15, isopropyl 3-methyl-3-(4-(5-methyl-2-oxo-2,3-dihydro-1H-benzo[d]imidazol-1-yl)piperidin-1-yl)pyrrolidine-1-carboxylate] |
| 61 | 97 | CC#CCOC(=O)N1CCC(C)(N2CCC(n3c(=O)[nH]c4ccc(C)cc43)CC2)C1 (single isomer, unassigned) [Example 20, but-2-ynyl 3-methyl-3-(4-(6-methyl-2-oxo-2,3-dihydro-1H-benzo[d]imidazol-1-yl)piperidin-1-yl)pyrrolidine-1-carboxylate] |
| 94 | 262 | CC#CCOC(=O)N1CCC(C)(N2CCC(n3c(=O)[nH]c4cc(C)ccc43)CC2)C1 (single isomer, unassigned) [Example 21, but-2-ynyl 3-methyl-3-(4-(5-methyl-2-oxo-2,3-dihydro-1H-benzo[d]imidazol-1-yl)piperidin-1-yl)pyrrolidine-1-carboxylate] |
| 126 | 421 | CC#CCOC(=O)N1CCC(C)(N2CCC(n3c(=O)[nH]c4cc(F)ccc43)CC2)C1 (single isomer, unassigned) [Example 22, but-2-ynyl 3-(4-(5-fluoro-2-oxo-2,3-dihydro-1H-benzo[d]imidazol-1-yl)piperidin-1-yl)-3-methylpyrrolidine-1-carboxylate] |
| 668 | 3870 | COC(=O)N1CCC(C)(N2CCC(n3c(=O)[nH]c4cc(F)ccc43)CC2)C1 (single isomer, unassigned) [Example 23, methyl 3-(4-(5-fluoro-2-oxo-2,3-dihydro-1H-benzo[d]imidazol-1-yl)piperidin-1-yl)-3-methylpyrrolidine-1-carboxylate] |
| 1350 | 5090 | CC1(N2CCC(n3c(=O)[nH]c4cc(F)ccc43)CC2)CCN(C(=O)OCCF)C1 (single isomer, unassigned) [Example 24, 2-fluoroethyl 3-(4-(5-fluoro-2-oxo-2,3-dihydro-1H-benzo[d]imidazol-1-yl)piperidin-1-yl)-3-methylpyrrolidine-1-carboxylate] |
| 146 | 684 | C#CCOC(=O)N1CCC(C)(N2CCC(n3c(=O)[nH]c4cc(F)ccc43)CC2)C1 (single isomer, unassigned) [Example 25, prop-2-ynyl 3-(4-(5-fluoro-2-oxo-2,3-dihydro-1H-benzo[d]imidazol-1-yl)piperidin-1-yl)-3-methylpyrrolidine-1-carboxylate] |
| 146 | 857 | Cc1ccc2[nH]c(=O)n(C3CCN(C4(C)CCN(C(=O)OCCF)C4)CC3)c2c1 (single isomer, unassigned) [Example 26, 2-fluoroethyl 3-methyl-3-(4-(6-methyl-2-oxo-2,3-dihydro-1H-benzo[d]imidazol-1-yl)piperidin-1-yl)pyrrolidine-1-carboxylate] |
| 620 | 3090 | Cc1ccc2c(c1)[nH]c(=O)n2C1CCN(C2(C)CCN(C(=O)OCCF)C2)CC1 (single isomer, unassigned) [Example 27, 2-fluoroethyl 3-methyl-3-(4-(5-methyl-2-oxo-2,3-dihydro-1H-benzo[d]imidazol-1-yl)piperidin-1-yl)pyrrolidine-1-carboxylate] |
| 2400 | 8390 | Cc1ccc2[nH]c(=O)n(C3CCN(C4(C)CCN(C(=O)OCCF)C4)CC3)c2c1 (single isomer, unassigned) [Example 28, 2-fluoroethyl 3-methyl-3-(4-(6-methyl-2-oxo-2,3-dihydro-1H-benzo[d]imidazol-1-yl)piperidin-1-yl)pyrrolidine-1-carboxylate] |
